Data from the supplement of paper PMC10307832.

Key:
Assay in all cases: relative viability (nuclei count vs DMSO), 5 days (fraction); higher = more cells survive
[1] = compound: O=C(C[C@H]1NCCC[C@@H]1O)Cn1cnc2cc(Br)c(Cl)cc2c1=O (racemic) [Halofuginone] + N=C(N)NC(=N)NCCc1ccccc1 [Phenformin] (partner 250 µM)
Outline: (§1)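 Values are medians from duplicate plates. Each reflects relative viability, defined as the nuclei count of treated wells over that of vehicle wells. Lung cancer cell lines in 1536-well plates were pin-tool dosed one day after seeding with one drug alone or with a fixed anchor-drug dose plus five library-drug doses (not always all listed) in √10 steps, then fixed, stained and imaged at 4× after 5 days.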

Decitabine + Crizotinib = compound: Nc1ncn([C@H]2C[C@H](O)[C@@H](CO)O2)c(=O)n1 [Decitabine] + C[C@@H](Oc1cc(-c2cnn(C3CCNCC3)c2)cnc1N)c1c(Cl)ccc(F)c1Cl [Crizotinib] (partner 1 µM)
Outline: as §1

Cediranib + Decitabine = compound: COc1cc2c(Oc3ccc4[nH]c(C)cc4c3F)ncnc2cc1OCCCN1CCCC1 [Cediranib] + Nc1ncn([C@H]2C[C@H](O)[C@@H](CO)O2)c(=O)n1 [Decitabine] (partner 2 µM)
Outline: as §1

Decitabine + OSI-027 = compound: Nc1ncn([C@H]2C[C@H](O)[C@@H](CO)O2)c(=O)n1 [Decitabine] + COc1cccc2cc(-c3nc([C@H]4CC[C@H](C(=O)O)CC4)n4ncnc(N)c34)[nH]c12 [OSI-027] (partner 0.5 µM)
Outline: as §1

Cell Line	relative viability ([1]; first compound 0.001 µM)	relative viability ([1]; first compound 0.003162 µM)	relative viability ([1]; first compound 0.01 µM)	relative viability ([1]; first compound 0.03162 µM)	relative viability ([1]; first compound 0.1 µM)	relative viability (Decitabine + Crizotinib; first compound 0.04 µM)	relative viability (Decitabine + Crizotinib; first compound 0.1265 µM)	relative viability (Decitabine + Crizotinib; first compound 0.4 µM)	relative viability (Decitabine + Crizotinib; first compound 1.265 µM)	relative viability (Decitabine + Crizotinib; first compound 4 µM)	relative viability (Cediranib + Decitabine; first compound 0.04 µM)	relative viability (Cediranib + Decitabine; first compound 0.1265 µM)	relative viability (Cediranib + Decitabine; first compound 0.4 µM)	relative viability (Cediranib + Decitabine; first compound 1.265 µM)	relative viability (Cediranib + Decitabine; first compound 4 µM)	relative viability (Decitabine + OSI-027; first compound 0.04 µM)	relative viability (Decitabine + OSI-027; first compound 0.1265 µM)	relative viability (Decitabine + OSI-027; first compound 0.4 µM)	relative viability (Decitabine + OSI-027; first compound 1.265 µM)	relative viability (Decitabine + OSI-027; first compound 4 µM)
NCI-H1355	0.456	0.503	0.429	0.441	0.407	0.642	0.495	0.413	0.29	0.281	0.331	0.359	0.353	0.367	0.429	0.352	0.398	0.289	0.288	0.267
NCI-H1650	0.495	0.467	0.413	0.442	0.188	0.838	0.603	0.331	0.326	0.241	0.408	0.482	0.354	0.496	0.385	0.422	0.495	0.321	0.285	0.341
SW 1573	0.411	0.389	0.378	0.357	0.205	0.627	0.961	0.724	0.507	0.358	0.606	0.685	0.542	0.408	0.553	0.469	0.558	0.572	0.273	0.21
NCI-H661	0.296	0.298	0.295	0.274	0.284	0.929	0.945	0.918	0.619	0.523	0.663	0.598	0.529	0.531	0.588	0.55	0.628	0.474	0.374	0.346
LU99A	0.945	1.08	0.841	0.764	0.735	0.517	0.491	0.631	0.439	0.317	0.936	–	0.844	0.863	0.936	0.307	0.291	0.319	0.255	0.293
LCLC-97TM1	0.4	0.408	0.351	0.417	0.332	0.155	0.16	0.18	0.15	0.101	0.234	–	0.223	0.196	0.248	0.244	0.295	0.188	0.229	0.11
LC-2-ad	0.694	0.581	0.536	0.677	0.466	0.391	0.371	0.34	0.262	0.283	0.803	0.779	0.784	0.744	0.822	0.738	0.705	0.663	0.457	0.479
NCI-H1944	0.179	0.225	0.208	0.218	0.172	0.787	0.859	0.627	0.45	0.387	0.443	0.396	0.422	0.443	0.45	0.372	0.424	0.353	0.329	0.354
HOP-62	0.663	0.707	0.676	0.634	0.603	0.421	0.318	0.149	0.117	0.133	0.255	0.246	0.215	0.207	0.203	0.613	0.601	0.272	0.23	0.167
NCI-H2347	0.535	0.521	0.53	0.477	0.317	0.691	0.511	0.549	0.474	0.469	0.671	0.703	0.617	0.659	0.568	0.382	0.478	0.34	0.402	0.383
NCI-H2087	0.487	0.535	0.424	0.44	0.362	0.515	0.568	0.563	0.347	0.292	0.22	0.35	0.308	0.328	0.276	0.376	0.348	0.317	0.257	0.28
EPLC-272H	0.314	0.267	0.311	0.312	0.286	0.587	0.587	–	0.414	0.402	0.352	–	0.338	0.406	0.354	–	0.288	0.11	0.248	0.186
LXF-289	0.533	0.519	0.498	0.508	0.507	0.579	0.557	0.432	0.341	0.308	0.397	–	0.371	0.385	0.411	0.646	0.617	0.361	0.31	0.23
COR-L23	0.489	0.431	0.482	0.415	0.303	0.332	0.33	0.332	0.22	0.184	0.528	0.44	0.402	0.332	0.484	0.415	0.401	0.335	0.227	0.158
RERF-LC-KJ	0.447	0.436	0.381	0.416	0.423	0.812	0.77	0.245	0.551	0.561	0.657	0.629	0.715	0.666	0.684	0.529	0.559	–	0.457	0.471
NCI-H1755	0.636	0.629	0.617	0.665	0.615	0.762	0.811	0.804	0.53	0.317	0.71	0.66	0.753	0.707	0.724	0.642	0.669	0.534	0.571	0.52
PC-14	0.563	0.553	0.565	0.606	0.281	–	0.57	0.258	0.27	0.225	0.209	0.245	0.241	0.309	0.264	0.148	0.425	0.16	0.113	0.105

Cell Line	relative viability ([1]; first compound 0.001 µM)	relative viability ([1]; first compound 0.003162 µM)	relative viability ([1]; first compound 0.01 µM)	relative viability ([1]; first compound 0.03162 µM)	relative viability ([1]; first compound 0.1 µM)	relative viability (Decitabine + Crizotinib; first compound 0.04 µM)	relative viability (Decitabine + Crizotinib; first compound 0.1265 µM)	relative viability (Decitabine + Crizotinib; first compound 0.4 µM)	relative viability (Decitabine + Crizotinib; first compound 1.265 µM)	relative viability (Decitabine + Crizotinib; first compound 4 µM)	relative viability (Cediranib + Decitabine; first compound 0.04 µM)	relative viability (Cediranib + Decitabine; first compound 0.1265 µM)	relative viability (Cediranib + Decitabine; first compound 0.4 µM)	relative viability (Cediranib + Decitabine; first compound 1.265 µM)	relative viability (Cediranib + Decitabine; first compound 4 µM)	relative viability (Decitabine + OSI-027; first compound 0.04 µM)	relative viability (Decitabine + OSI-027; first compound 0.1265 µM)	relative viability (Decitabine + OSI-027; first compound 0.4 µM)	relative viability (Decitabine + OSI-027; first compound 1.265 µM)	relative viability (Decitabine + OSI-027; first compound 4 µM)
NCI-H322M	0.783	0.728	0.721	0.566	0.478	0.724	0.661	0.673	0.36	0.363	0.606	0.837	0.715	0.688	0.654	0.507	0.496	0.432	0.473	0.441
NCI-H1666	0.587	0.612	0.562	0.56	0.475	0.7	0.75	0.708	0.512	0.46	0.738	0.624	0.728	0.87	0.727	0.785	0.82	0.742	0.595	0.676
A-427	0.304	0.346	0.326	0.293	0.272	0.489	0.403	0.316	0.205	0.165	0.566	–	0.537	0.537	0.66	0.266	0.324	0.26	0.213	0.246
NCI-H1651	0.377	0.34	0.333	0.35	0.276	0.788	0.836	0.755	0.586	0.635	0.482	0.538	0.669	0.542	0.652	0.586	0.842	0.777	0.573	0.478
NCI-H520	0.606	0.78	0.569	0.582	0.193	0.654	0.544	0.399	0.308	0.26	0.572	0.588	0.502	0.488	0.459	0.309	0.242	0.234	0.215	0.21
201T	0.459	0.472	0.442	0.457	0.348	1.02	1	1.15	0.965	0.914	0.876	0.89	0.889	0.868	0.878	0.72	0.681	0.62	0.464	0.403
NCI-H460	0.512	0.549	0.543	0.493	0.126	0.524	0.623	0.22	0.186	0.126	0.505	0.47	0.485	0.479	0.587	0.603	0.848	0.598	0.308	0.215
NCI-H596	0.732	0.84	0.742	0.938	0.569	0.939	1.02	0.353	0.772	0.755	1.04	1.1	0.978	0.918	1.18	0.606	0.793	–	0.581	0.477
HARA	0.486	0.465	0.487	0.48	0.363	0.774	0.745	0.63	0.379	0.352	0.595	0.593	0.517	0.782	0.582	0.251	0.257	0.164	0.112	0.111
NCI-H2170	0.412	0.416	0.411	0.392	0.434	0.942	0.875	0.79	0.463	0.395	0.522	–	0.473	0.481	0.515	0.626	0.55	0.454	0.44	0.385
NCI-H2126	0.538	0.56	0.511	0.512	0.488	0.827	0.837	0.666	0.555	0.52	0.589	0.573	0.58	0.561	0.602	0.659	0.67	0.489	0.465	0.44
HCC-827	0.407	0.426	0.373	0.434	0.38	–	0.396	0.355	0.262	0.272	0.314	0.23	0.358	0.297	0.311	0.129	0.37	0.311	0.202	0.27
ABC-1	0.27	0.223	0.24	0.234	0.209	0.771	0.907	0.627	0.728	0.542	0.866	1.11	1.19	1.05	1.04	0.554	0.387	0.492	0.424	0.37
NCI-H650	0.507	0.501	0.437	0.424	0.374	0.533	0.524	0.303	0.264	0.195	0.315	0.271	0.302	0.302	0.348	0.462	0.454	0.306	0.291	0.276
BEN	0.263	0.263	0.26	0.285	0.237	0.914	0.786	0.623	0.469	0.453	0.732	0.431	0.74	0.509	0.722	0.297	0.315	0.273	0.295	0.289
ChaGo-K-1	0.473	0.486	0.573	0.392	0.462	0.962	0.857	0.631	0.6	0.605	0.51	0.376	0.506	0.57	0.784	0.493	0.483	0.299	0.32	0.41
